One data set concerns the target T1, CCK receptor (pancreas) (Canis lupus familiaris, UniProt Q5D0K2).
T1 construct: from tissue; host or cells: dog pancreas membranes (whole pancreas, homogenized and centrifuged)
T1 sequence (Q5D0K2 1-428): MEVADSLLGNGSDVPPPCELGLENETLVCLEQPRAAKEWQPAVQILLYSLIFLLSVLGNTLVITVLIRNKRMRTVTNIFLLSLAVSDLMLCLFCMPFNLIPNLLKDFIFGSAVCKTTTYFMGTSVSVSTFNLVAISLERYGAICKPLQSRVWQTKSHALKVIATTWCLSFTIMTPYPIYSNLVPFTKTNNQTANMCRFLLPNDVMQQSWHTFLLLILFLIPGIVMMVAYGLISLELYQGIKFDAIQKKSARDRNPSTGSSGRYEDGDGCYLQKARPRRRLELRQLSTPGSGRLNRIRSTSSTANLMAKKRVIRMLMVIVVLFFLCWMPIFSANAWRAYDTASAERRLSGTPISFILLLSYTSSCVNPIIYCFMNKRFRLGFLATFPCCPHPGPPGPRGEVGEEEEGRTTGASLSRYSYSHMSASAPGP
Nature of the data set: CCK receptor-binding, pancreas (125I-CCK-8). Set-up: species or system male mongrel adult dog. How it is done: The entire pancreas of a male mongrel adult dog was extracted and the fat tissues thereof were removed. The residual portion was homogenized in 50 mM tris hydrochloride (pH 7.5) (Blinkman·Polytron PT20). After the filtration with nylon cloth (120 mesh) followed by centrifugation (50,000×g, for 12 minutes), the obtained sediment was homogenized in a tris buffer solution in the same manner as mentioned above and the homogenate was centrifuged. The obtained sediment was suspended in a buffer solution for binding assay (5 mM magnesium chloride, chloride, 5 mM dithiothreitol, 2 mg/ml bovine serum albumin, 0.1 mg/ml bacitracin, and 50 mM tris hydrochloride, pH 7.2), containing 0.14 mg/ml trypsin-inhibitor (soy bean), and the suspension was used as the receptor source.

The next data set deals with CCK-8. Nature of the data set: Effects on gastric excreting capability (Gastric emptying test), CCK-8 challenge. The class given is in vivo, male ddY mice. As to the method:
At 5 minutes' lapse thereafter, 0.1 ml of a 1.5% aqueous solution of methyl cellulose containing 0.05% phenolred (Sigma) was orally administered. After 15 minutes, the stomach was extracted and the gastric contents were mixed with a 10% aqueous solution of trichloroacetic acid. After the removal of the proteins, the residue was centrifuged at 3000 rpm for 10 minutes. To the supernatant was added a 1N solution of sodium hydroxide and the mixture was again centrifuged. Thereafter, OD560 value of the supernatant was measured by the spectrophotometer (Hitachi 200-10 type) to estimate the minimum effective dose (MED).

The target of the next data set is T2, CCK receptor (brain).
T2 construct: Brain; from tissue
T2 sequence (P32239 whole entry): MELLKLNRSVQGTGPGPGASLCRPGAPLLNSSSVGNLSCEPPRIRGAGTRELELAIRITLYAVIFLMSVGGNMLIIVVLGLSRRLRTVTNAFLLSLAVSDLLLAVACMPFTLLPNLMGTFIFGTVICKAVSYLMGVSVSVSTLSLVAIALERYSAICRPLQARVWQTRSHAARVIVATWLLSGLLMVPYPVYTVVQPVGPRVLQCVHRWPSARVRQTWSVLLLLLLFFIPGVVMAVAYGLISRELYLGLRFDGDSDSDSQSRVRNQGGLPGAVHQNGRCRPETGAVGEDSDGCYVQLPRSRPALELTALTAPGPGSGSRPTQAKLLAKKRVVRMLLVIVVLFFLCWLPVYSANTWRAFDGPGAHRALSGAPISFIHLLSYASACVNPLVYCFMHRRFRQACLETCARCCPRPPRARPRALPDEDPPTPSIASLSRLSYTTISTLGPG
As to the kind of experiment: CCK receptor-binding, brain (125I-CCK-8).

The next data set can be described thus: Acute toxicity test. The class given is in vivo. Conditions: oral; 6 male mice; observed for consecutive 5 days. From the text:
The acute toxicity of the compounds of the present invention was studied with the use of 6 male mice.

Setting [1] is: pancreas membranes of dog, 125I-CCK-8, 20° C., 30 minutes, read-out: CCK binding, IC50 Pancreas.

Drawing on patent US4992437A, “Thienodiazepine compounds and their pharmaceutical use” (Yoshitomi Pharmaceutical Industries, Ltd., priority 1987, dated 1991), this text covers IC50, minimal effective dose and acute toxicity for 4 compounds.

Like-named read-outs stand apart in the source and are kept apart here.

As usually defined, the IC50 is the concentration that inhibits the measured activity by half. Take “CCK-8: CCK-8 which consists of the 8 amino acids at the C terminus of CCK”: in the data set with CCK receptor (pancreas) (setting [1]), the IC50 came to 0.6 nM.
As to `CCc1cc2c(s1)-n1c(C)nnc1C(NC(=O)c1cc3ccccc3[nH]1)N=C2c1ccccc1Cl` (stereo not shown) [Compound A, 4-(2-Chlorophenyl)-2-ethyl-6-(2-indolecarboxamido)-9-methyl-6H-thieno[3,2-f][1,2,4]triazolo[4,3-a][1,4]diazepine], the minimal effective dose at 0.03 mg/kg in the data set with CCK-8 (Mus musculus, po, 25 min; read-out: Gastric Emptying MED (minimum effective dose)) was in the range of 0.3 to 1 mg/kg. Moreover, the concentration for half-maximal inhibition (IC50) on CCK receptor (pancreas) was 0.6 nM; on CCK receptor (brain), 1.8 nM. In addition, the acute toxicity result in “Acute toxicity test” is “low toxicity”.
Consider CCK-4, for which the IC50 on CCK receptor (pancreas) (setting [1]) came to 800 nM.
As to `CN1C(=O)C(NC(=O)c2cc3ccccc3[nH]2)N=C(c2ccccc2)c2ccccc21` [Example L-364718, N-(2,3-Dihydro-1-methyl-2-oxo-5-phenyl-1H-1,4-benzodiazepin-3-yl)-1H-indole-2-carboxamide, reference compound], in the data set on CCK-8 (Mus musculus, po, 25 min, read-out: Gastric Emptying MED (minimum effective dose)), the minimal effective dose at 0.03 mg/kg was in the range of 0.1 to 0.3 mg/kg.
